{
  "source": "patent US20160000762A1",
  "about": "“IMPROVING COGNITIVE FUNCTION” (THE REGENTS OF THE UNIVERSITY OF CALIFORNIA, priority 2013, published 2016)",
  "key": {"Ras": {"tested_on": "Ras", "assay": "Ras activity assay, brain lysate of 3× Tg AD mice", "assay_type": "in vivo", "details": "cortex and hippocampus, 30 mg/kg daily, 2 weeks", "method": "Ras activity assay. Brain lysate from 3× Tg AD mice at 6-10 months or 13-16 months of age was homogenized with Ral buffer (25 mM Tris-HCl, pH 7.4, 250 mM NaCl, 0.5% NP40, 1.25 mM MgCl2, and 5% glycerol) to measure active Ras levels. Briefly, brain lysate was incubated with GST-Raf-RBD purified protein coupled with GLUTATHIONE SEPHAROSE™ (Amersham) overnight at 4° C. After 24 h, pellets were washed with Ral buffer and western blotting was conducted with anti-Ras.\nBTA-EG4 injected 6-10 month old 3× Tg AD mice had increased Ras activity. […] Therefore, we examined whether the same mechanism is shared for improving dendritic spine density in the 3× Tg AD mouse model. To test this, 6-10 month old or 13-16 month old 3× Tg AD mice were injected with 30 mg/kg BTA-EG4 or vehicle daily for two weeks. After two weeks, mouse brains were homogenized with Ral buffer and levels of active Ras and RasGRF1 ([…]) were measured via Western blot. […] However, Ras activity was unchanged in the cortex and hippocampus of 13-16 month old mice (FIGS. 12E-12H, n=2 brains/group)."}, "Aβ [1]": {"tested_on": "Aβ", "assay": "Aβ ELISA, brain of injected wild-type mice", "assay_type": "in vivo", "details": "15 or 30 mg/kg i.p. daily for 2 weeks (both doses)", "method": "(§1) Aβ ELISA. Mouse brains were homogenized in tissue homogenization buffer containing 250 mM sucrose, 20 mM Tris base, protease, and phosphatase inhibitors. To measure soluble Aβ, DEA extraction was performed. Crude 10% homogenate was mixed with an equal volume of 0.4% diethylamine (DEA), sonicated, and ultracentrifuged for 1 hr at 100,000×g. The supernatant was collected and neutralized with 10% 0.5 M Tris, pH 6.8. Sensitive and specific ELISAs to rodent Aβ1-40 was purchased from IBL Transatlantic (Toronto, Canada) and conducted per the manufacturer's protocol.\n(§2) To test whether BTA-EG4 alters Aβ production in vitro, primary cortical neurons were treated with BTA-EG4 (1 or 5 μM) or control (10% DMSO), and Aβ levels were measured using ELISA. […] We then examined whether BTA-EG4 can alter Aβ levels in vivo by injecting wild-type mice daily for 2 weeks with BTA-EG4 (15 or 30 mg/kg, 10% DMSO in saline, i.p.). […] Furthermore, BTA-EG4 altered APP processing in vivo, as monitored by increased sAPPα (α-secretase cleavage product) and decreased sAPPβ (β-secretase cleavage product) levels in BTA-EG4 injected wild-type mice (30 mg/kg, i.p) compared to control-injected mice (FIGS. 1E, 1F)."}, "APP [2]": {"tested_on": "APP", "assay": "APP processing in vivo (sAPPα, sAPPβ immunoblot)", "set-up": "species or system wild-type mice", "details": "30 mg/kg i.p., 2 weeks", "method": "as §2"}, "APP [3]": {"molecular_target": "T1, APP (Rattus norvegicus, UniProt P08592)", "T1 construct": "BTA-EG4 increased endogenous cell surface APP levels in primary cortical neurons; endogenous in cells; host or cells: primary cortical neurons", "T1 sequence (P08592 18-770)": "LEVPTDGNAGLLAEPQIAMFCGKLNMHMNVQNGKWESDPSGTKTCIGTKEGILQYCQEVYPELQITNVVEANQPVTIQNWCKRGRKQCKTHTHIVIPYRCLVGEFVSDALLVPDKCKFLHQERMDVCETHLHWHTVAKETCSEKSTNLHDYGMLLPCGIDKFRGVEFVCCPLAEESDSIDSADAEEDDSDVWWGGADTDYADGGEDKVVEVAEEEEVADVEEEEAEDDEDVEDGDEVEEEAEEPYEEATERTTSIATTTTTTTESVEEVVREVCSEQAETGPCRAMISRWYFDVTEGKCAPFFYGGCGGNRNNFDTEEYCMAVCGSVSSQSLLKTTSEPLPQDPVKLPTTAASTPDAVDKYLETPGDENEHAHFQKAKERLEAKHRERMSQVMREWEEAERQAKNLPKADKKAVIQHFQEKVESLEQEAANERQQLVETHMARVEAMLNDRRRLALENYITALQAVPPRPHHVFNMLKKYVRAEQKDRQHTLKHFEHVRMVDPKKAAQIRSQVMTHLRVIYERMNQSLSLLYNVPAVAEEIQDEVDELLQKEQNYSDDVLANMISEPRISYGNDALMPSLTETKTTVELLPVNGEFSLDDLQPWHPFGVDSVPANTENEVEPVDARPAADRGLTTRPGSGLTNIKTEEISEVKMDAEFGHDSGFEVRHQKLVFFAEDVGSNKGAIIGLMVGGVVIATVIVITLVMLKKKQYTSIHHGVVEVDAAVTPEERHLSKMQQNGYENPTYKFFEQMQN", "assay": "Cell surface biotinylation, primary cortical neurons", "assay_type": "cell-based", "details": "5 μM, 24 h", "method": "(§3) Cell surface biotinylation. COS7 cells were transiently transfected with APP for 24 hr in OPTI-MEM® containing 10% fetal bovine serum, and then treated with BTA-EG4 or control for 24 hr. After 24 hr, surface proteins were biotin labeled, immobilized with NeutrAvidin™ Gel and incubated 1 h with SDS-PAGE sample buffer, including 50 mM DTT, as described previously (Minami et al., 2010). Eluates were analyzed for APP by immunoblotting.\nIt is well known that the majority of a-secretase activity occurs on the cell surface, while β- and γ-secretase activity occurs primarily in the early and late endosomes (Huse et al., 2000; Reiss et al., 2006). Thus, if APP is present at the cell's surface, it is preferentially cleaved by α-secretase, resulting in decreased Aβ production. Therefore, we examined whether BTA-EG4 regulates cell surface expression of APP. To test this initially, COS7 cells were transfected with human APP and treated with BTA-EG4 (5 μM) or control (10% DMSO) for 24 h. […] Furthermore, BTA-EG4 increased endogenous cell surface APP levels in primary cortical neurons following 24 h of BTA-EG4 (5 μM) treatment compared with control (10% DMSO) treatment (FIG. 1I). In an alternative approach to examine the effect of BTA-EG4 on cell surface APP expression, we conducted live cell-surface immunostaining in primary hippocampal neurons."}, "Aβ [4]": {"tested_on": "Aβ", "assay": "Aβ ELISA, conditioned media of primary cortical neurons", "assay_type": "cell-based", "details": "1 or 5 μM, 24 h, vs control (10% DMSO)", "method": "as §1, §2"}, "human APP": {"molecular_target": "T2, human APP (Homo sapiens, UniProt P05067)", "T2 construct": "expressed in transfected cells; host or cells: COS7 cells", "T2 sequence (P05067 18-770)": "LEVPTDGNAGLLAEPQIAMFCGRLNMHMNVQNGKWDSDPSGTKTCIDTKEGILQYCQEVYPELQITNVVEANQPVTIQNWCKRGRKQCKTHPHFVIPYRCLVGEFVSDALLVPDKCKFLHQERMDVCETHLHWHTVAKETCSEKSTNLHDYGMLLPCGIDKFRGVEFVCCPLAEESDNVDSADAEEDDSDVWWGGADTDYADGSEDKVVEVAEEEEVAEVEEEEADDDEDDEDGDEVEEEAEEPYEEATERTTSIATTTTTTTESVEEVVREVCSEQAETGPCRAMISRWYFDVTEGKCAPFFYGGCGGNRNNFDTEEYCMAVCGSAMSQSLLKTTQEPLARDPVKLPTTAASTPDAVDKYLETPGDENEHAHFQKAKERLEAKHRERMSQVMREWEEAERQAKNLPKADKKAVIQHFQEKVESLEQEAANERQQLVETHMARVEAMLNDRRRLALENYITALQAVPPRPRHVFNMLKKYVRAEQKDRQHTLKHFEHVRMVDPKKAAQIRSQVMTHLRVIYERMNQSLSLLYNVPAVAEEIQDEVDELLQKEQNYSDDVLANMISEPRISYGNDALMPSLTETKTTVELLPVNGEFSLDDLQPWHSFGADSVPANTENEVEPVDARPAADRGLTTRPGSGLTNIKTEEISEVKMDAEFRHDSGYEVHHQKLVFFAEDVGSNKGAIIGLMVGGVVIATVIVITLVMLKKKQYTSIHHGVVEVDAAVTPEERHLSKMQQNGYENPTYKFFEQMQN", "assay": "Cell surface biotinylation, COS7 cells expressing APP", "assay_type": "cell-based", "details": "5 μM, 24 h", "method": "Cell lines. COS 7 cells (Lombardi Co-Resources Cancer Center, Georgetown University) were maintained in Opti-MEMO (Invitrogen) with 10% fetal bovine serum (FBS, Life Technologies, Inc.) in a 5% CO2 incubator. The cells were transiently transfected with 0.5-1 μg of plasmid in FuGENE® 6 (Roche) according to the manufacturer's protocol and cultured 24 hr in DMEM containing 10% FBS. For co-transfections, cells were similarly transfected with 0.5-1 μg of each plasmid in FUGENE® 6 (Roche) and cultured 24 hr in DMEM with 10% FBS.\nas §3\nIt is well known that the majority of a-secretase activity occurs on the cell surface, while β- and γ-secretase activity occurs primarily in the early and late endosomes (Huse et al., 2000; Reiss et al., 2006). Thus, if APP is present at the cell's surface, it is preferentially cleaved by α-secretase, resulting in decreased Aβ production. Therefore, we examined whether BTA-EG4 regulates cell surface expression of APP. […]"}, "[5]": {"tested_on": "insulin-degrading enzyme (IDE), neprilysin (NPE)", "assay": "Levels of Aβ degradation enzymes (data not shown)"}},
  "data": [
    {"substance": "BTA-EG4", "values": [
      {"measurement": "Ras activity", "setting": "Ras; 6-10 months", "value": "increased"},
      {"measurement": "Ras activity", "setting": "Ras; 13-16 months", "value": "unchanged"},
      {"measurement": "Aβ peptide levels in brain", "setting": "Aβ [1]", "value": "significantly decreased"},
      {"measurement": "sAPPα levels", "setting": "APP [2]", "value": "increased"},
      {"measurement": "sAPPβ levels", "setting": "APP [2]", "value": "decreased"},
      {"measurement": "endogenous cell surface APP levels", "setting": "APP [3]", "value": "increased"},
      {"measurement": "Aβ protein levels", "setting": "Aβ [4]", "value": "significantly decreased"},
      {"measurement": "cell surface APP", "setting": "human APP", "value": "increased"},
      {"measurement": "levels of Aβ degradation enzymes (IDE, NPE)", "setting": "[5]", "value": "did not alter"}
    ]}
  ]
}
